Experimental data reported in ChEMBL document CHEMBL4411299, “A class of novel tubulin polymerization inhibitors exert effective anti-tumor activity via mitotic catastrophe” (Eur J Med Chem, 2019).
Activity calls are given as the source filed them. The calls are words filed in the database; no cut-off is given here.

What was measured:
[1] = Clearance in female Sprague-Dawley rat at 1.5 mg/kg, iv administered as single dose by LC-MS/MS analysis; assay type: ADME, organism-based; settings: in vivo
HeLa [2] = experiment: Induction of apoptosis in human HeLa cells assessed as early apoptotic cells at 0.1 uM after 24 hrs by Annexin V-FITC/propidium iodide staining-based flow cytometric analysis (reference value: 3.65%); assay type: functional
Tubulin (Homo sapiens) [3] = molecular target: T1, Tubulin (Homo sapiens) (UniProt P68371+Q9H4B7+P0DPH7+P68366+Q13509+Q71U36+P04350+Q3ZCM7+P07437+P68363+Q9BQE3+Q6PEY2+Q13885+Q9BVA1+Q9BUF5); experiment: Inhibition of tubulin polymerization in human HeLa cells assessed as induction of shorter microtubule fibers at 0.02 uM after 12 hrs by DAPI staining-based confocal fluorescence microscopic analysis; assay type: cell-based
[4] = Apparent volume of distribution in female Sprague-Dawley rat at 1.5 mg/kg, iv administered as single dose by LC-MS/MS analysis; assay type: ADME, organism-based; settings: in vivo, read-out: Vd(app)
HeLa [5] = experiment: Antitumor activity against human HeLa cells xenografted in nude mouse assessed as tumor weight at 20 mg/kg, iv administered every other day up to 20 days (reference value: 1.014 +/- 0.116g); assay type: functional
MDA-MB-231 = experiment: Antiproliferative activity against human MDA-MB-231 cells after 48 hrs by MTT assay; assay type: functional; settings: MDA-MB-231, 48 h
HeLa [6] = experiment: Antitumor activity against human HeLa cells xenografted in nude mouse assessed as tumor weight at 10 mg/kg, iv administered every other day up to 20 days (reference value: 1.014 +/- 0.116g); assay type: functional
HeLa [7] = experiment: Cell cycle arrest in human HeLa cells assessed as reduction in accumulation of cells at S phase up to 0.4 uM after 24 hrs by propidium iodide staining-based flow cytometric analysis; assay type: functional
[8] = AUC (0 to t) in Sprague-Dawley rat at 1.5 mg/kg, iv administered as single dose by LC-MS/MS analysis; assay type: ADME, organism-based; settings: in vivo
[9] = AUC (0 to infinity) in Sprague-Dawley rat at 1.5 mg/kg, iv administered as single dose by LC-MS/MS analysis; assay type: ADME, organism-based; design: dose 1.5 mg/kg, route intravenous, time infinity; settings: in vivo
[10] = Half life in Sprague-Dawley rat at 1.5 mg/kg, iv administered as single dose by LC-MS/MS analysis; assay type: ADME, organism-based; settings: in vivo
A2780 = experiment: Antiproliferative activity against human A2780 cells after 48 hrs by MTT assay; assay type: functional; settings: A2780, 48 h
[11] = Half life in male Sprague-Dawley rat at 1.5 mg/kg, iv administered as single dose by LC-MS/MS analysis; assay type: ADME, organism-based; settings: in vivo
HeLa [12] = experiment: Induction of ROS generation in human HeLa cells at 0.02 to 0.2 uM after 12 hrs by DCFH-DA staining-based flow cytometric analysis; assay type: functional, cell-based
[13] = Half life in human liver microsomes at 5 uM in presence of NADPH regenerating system by LC-MS/MS analysis; assay type: ADME, Microsome
[14] = AUC (0 to infinity) in female Sprague-Dawley rat at 1.5 mg/kg, iv administered as single dose by LC-MS/MS analysis; assay type: ADME, organism-based; design: dose 1.5 mg/kg, time infinity, route intravenous; settings: in vivo
HeLa [15] = experiment: Induction of apoptosis in human HeLa cells assessed as early apoptotic cells at 0.05 uM after 24 hrs by Annexin V-FITC/propidium iodide staining-based flow cytometric analysis (reference value: 3.65%); assay type: functional
HeLa [16] = experiment: Induction of apoptosis in human HeLa cells assessed as viable cells at 0.05 uM after 24 hrs by Annexin V-FITC/propidium iodide staining-based flow cytometric analysis (reference value: 92.8%); assay type: functional; settings: read-out: Activity
[17] = Toxicity in mouse xenografted with human HeLa cells assessed as change in spleen weight at 5 to 20 mg/kg, iv administered every other day up to 20 days; assay type: organism-based; settings: in vivo, 480 h
HeLa [18] = experiment: Antiproliferative activity against human HeLa cells after 48 hrs by MTT assay; assay type: functional
HeLa [19] = experiment: Induction of apoptosis in human HeLa cells assessed as viable cells at 0.1 uM after 24 hrs by Annexin V-FITC/propidium iodide staining-based flow cytometric analysis (reference value: 92.8%); assay type: functional; settings: read-out: Activity
[20] = Stability in human liver microsomes assessed as parent compound remaining at 5 uM after 2 hrs in presence of NADPH regenerating system by LC-MS/MS analysis; assay type: ADME, Microsome
Tubulin (Homo sapiens) [21] = molecular target: T1, Tubulin (Homo sapiens); experiment: Inhibition of tubulin polymerization in human HeLa cells assessed as induction of mitotic phase arrest at 0.02 uM after 12 hrs by DAPI staining-based confocal fluorescence microscopic analysis; assay type: cell-based
HeLa [22] = experiment: Cell cycle arrest in human HeLa cells assessed as reduction in accumulation of cells at G1 phase up to 0.4 uM after 24 hrs by propidium iodide staining-based flow cytometric analysis; assay type: functional
HeLa [23] = experiment: Induction of apoptosis in human HeLa cells assessed as necrotic cells at 0.1 uM after 24 hrs by Annexin V-FITC/propidium iodide staining-based flow cytometric analysis (reference value: 0.05%); assay type: functional
HeLa [24] = experiment: Antitumor activity against human HeLa cells xenografted in nude mouse assessed as tumor growth inhibition at 20 mg/kg, iv administered every other day up to 20 days relative to control; assay type: functional; settings: 480 h, read-out: TGI
[25] = MRT (0 to t) in male Sprague-Dawley rat at 1.5 mg/kg, iv administered as single dose by LC-MS/MS analysis; assay type: ADME, organism-based; settings: in vivo
[26] = AUC (0 to t) in female Sprague-Dawley rat at 1.5 mg/kg, iv administered as single dose by LC-MS/MS analysis; assay type: ADME, organism-based; settings: in vivo
HeLa [27] = experiment: Induction of apoptosis in human HeLa cells assessed as increase in cleaved PARP level at 0.02 to 0.1 uM after 24 hrs by Western blot analysis; assay type: functional, cell-based
HeLa [28] = experiment: Induction of apoptosis in human HeLa cells assessed as late apoptotic cells at 0.1 uM after 24 hrs by Annexin V-FITC/propidium iodide staining-based flow cytometric analysis (reference value: 3.51%); assay type: functional
HepG2 = experiment: Antiproliferative activity against human HepG2 cells after 48 hrs by MTT assay; assay type: functional; settings: HepG2, 48 h
HeLa [29] = experiment: Inhibition of colony formation in human HeLa cells at 0.1 uM after 2 weeks by crystal violet staining-based assay relative to control; assay type: functional; settings: 336 h
HeLa [30] = experiment: Induction of apoptosis in human HeLa cells assessed as late apoptotic cells at 0.05 uM after 24 hrs by Annexin V-FITC/propidium iodide staining-based flow cytometric analysis (reference value: 3.51%); assay type: functional
[31] = MRT (0 to infinity) in male Sprague-Dawley rat at 1.5 mg/kg, iv administered as single dose by LC-MS/MS analysis; assay type: ADME, organism-based; settings: in vivo
[32] = MRT (0 to infinity) in Sprague-Dawley rat at 1.5 mg/kg, iv administered as single dose by LC-MS/MS analysis; assay type: ADME, organism-based; settings: in vivo
HeLa [33] = experiment: Inhibition of colony formation in human HeLa cells after 2 weeks by crystal violet staining-based assay; assay type: functional, cell-based
HeLa [34] = experiment: Antitumor activity against human HeLa cells xenografted in nude mouse assessed as tumor growth inhibition administered intravenously every other day up to 20 days; assay type: functional, cell-based

SMILES: COC(=O)N1N=C(c2cccc(C)c2)CC1c1cc(OC)c(OC)c(OC)c1 (configuration not stated)
- clearance [1]: 79.7 mL/min/kg
- Activity (HeLa [2]): 17.3%
- Activity (Tubulin (Homo sapiens) [3]): Active
- Vd [4]: 6.24 L/kg
- Activity (HeLa [5]): 0.266 g
- GI50 (MDA-MB-231): 0.14 µM
- Activity (HeLa [6]): 0.631 g
- Activity (HeLa [7]): Active
- AUC(0-t) [8]: 397 ng·h/mL
- AUC(0-inf) [9]: 414 ng·h/mL
- half-life [10]: 54 min
- GI50 (A2780): 0.6 µM
- half-life [11]: 52.2 min
- Activity (HeLa [12]): Active
- t1/2 [13]: 170.73 min
- AUC(0-inf) [14]: 336 ng·h/mL
- Activity (HeLa [15]): 10.2%
- viability at 0.05 µM (HeLa [16]): 84.4%
- Activity [17]: Non-Toxic
- GI50 (HeLa [18]): 0.05 µM
- viability at 0.1 µM (HeLa [19]): 75.8%
- Stability [20]: 31.1%
- Activity (Tubulin (Homo sapiens) [21]): Active
- Activity (HeLa [22]): Active
- Activity (HeLa [23]): 0.829%
- inhibition in vivo at 20 mg/kg (HeLa [24]): 72.9%
- MRT last [25]: 51 min
- AUC(0-t) [26]: 319 ng·h/mL
- Activity (HeLa [27]): Active
- Activity (HeLa [28]): 6.03%
- GI50 (HepG2): 0.98 µM
- inhibition at 0.1 µM (HeLa [29]): ≤ 80%
- Activity (HeLa [30]): 4.95%
- MRT inf [31]: 60 min
- MRT inf [32]: 65.4 min
- inhibition (HeLa [33]): Dose-dependent effect
- TGI (HeLa [34]): Dose-dependent effect
